In patent publication US11180482B2, “Anilinopyrimidines as haematopoietic progenitor kinase 1 (HPK1) inhibitors” (Ariad Pharmaceuticals, Inc., priority 2016, dated 2021):

target: Wild Type HPK1 (MAP4K1) Kinase (Homo sapiens (Human), UniProt Q92918); assay: HPK1 Assay (Caliper EZ reader, fluorescein tagged peptide substrate); format: biochemical; conditions: ATP 500 micromolar, kinase 6 nM, pH 7.4
Description: The enzymatic activity of Wild Type HPK1 (MAP4K1) Kinase was measured in the presence or absence of an inhibitor compound of the present disclosure by preparation of a reaction mixture containing a fluorescein tagged peptide (2 micromolar final concentration), ATP (Adenosine Triphosphate, 500 micromolar final concentration) and Wild Type kinase (6 nM final concentration) in a buffer system comprising 50 mM HEPES (Buffer), 3 mM MgCl2, 5% w/v Trehalose, 0.01% Brij 35 (Detergent), 0.1% Pluronic F127 (Surfactant), 0.1 mM EDTA (Ethylenediaminetetraacetic acid), 0.1 mM EGTA (ethylene glycol-bis(β-aminoethyl ether)-N,N,N′,N′-tetraacetic acid) and 1 mM DTT (Dithiothreitol) and at a pH of 7.4. The reactions were quenched by the addition of EDTA to a final concentration of 25 mM. A Caliper EZ reader was used to measure the extent of substrate to product conversion.
The peptide substrate used in the HPK1 assay was designed based on the amino acid sequence surrounding serine residue 376 of SLP76-Lymphocyte cytosolic protein 2 (a known intracellular substrate of HPK1). This sequence SSFPQSAsLPPYFSQ was modified as follows for use in Caliper assays of HPK1: the serine residues on either side of serine 376 were replaced with alanine, three lysine residues were added at the […] and a fluorescein tag (FAM) was attached to the […] to produce the sequence, FAM-FPQAAsLPPYFAKKK.

Wild Type HPK1 (MAP4K1) Kinase, sequence (Q92918 whole entry, species assumed): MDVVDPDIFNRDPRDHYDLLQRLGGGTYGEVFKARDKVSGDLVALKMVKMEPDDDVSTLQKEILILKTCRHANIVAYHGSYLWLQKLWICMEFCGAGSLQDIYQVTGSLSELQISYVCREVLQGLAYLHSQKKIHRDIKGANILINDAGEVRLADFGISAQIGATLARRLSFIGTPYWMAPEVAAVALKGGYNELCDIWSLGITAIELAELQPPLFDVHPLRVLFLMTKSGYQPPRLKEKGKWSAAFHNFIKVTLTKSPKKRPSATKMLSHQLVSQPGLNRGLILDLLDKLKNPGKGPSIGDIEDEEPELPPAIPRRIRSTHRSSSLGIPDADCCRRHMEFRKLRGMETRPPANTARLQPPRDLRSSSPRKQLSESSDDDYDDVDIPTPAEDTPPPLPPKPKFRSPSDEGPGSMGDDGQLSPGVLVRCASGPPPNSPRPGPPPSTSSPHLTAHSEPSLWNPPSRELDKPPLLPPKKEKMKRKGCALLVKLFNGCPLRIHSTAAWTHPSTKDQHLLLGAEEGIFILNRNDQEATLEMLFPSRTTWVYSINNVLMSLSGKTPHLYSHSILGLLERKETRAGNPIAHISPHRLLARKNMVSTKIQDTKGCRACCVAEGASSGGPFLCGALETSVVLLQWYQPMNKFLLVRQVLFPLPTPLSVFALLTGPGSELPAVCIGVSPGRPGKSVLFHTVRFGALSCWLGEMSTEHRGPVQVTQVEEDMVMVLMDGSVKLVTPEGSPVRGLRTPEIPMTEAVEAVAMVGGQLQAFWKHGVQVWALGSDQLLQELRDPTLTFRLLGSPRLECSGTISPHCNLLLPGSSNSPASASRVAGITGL

IC50	Structure (SMILES)
< 5 nM	[2H]C1([2H])c2cc(Nc3ncc(Cl)c(Nc4ccccc4P(C)(C)=O)n3)c(OC)cc2CCN1C(C)C [Example I-43, (2-((5-chloro-2-((2-isopropyl-6-methoxy-1,2,3,4-tetrahydroiso-quinolin-7-yl-1,1-d2)amino)pyrimidin-4-yl)amino)phenyl)-dimethylphosphine oxide]
100 to 10000 nM	COc1cc2c(cc1Nc1ncc(-c3cnn(C)c3)c(Nc3ccccc3P(C)(C)=O)n1)CN(C)CC2 [Example I-47, (2-((2-((6-methoxy-2-methyl-1,2,3,4-tetrahydroisoquinolin-7-yl)amino)-5-(1-methyl-1H-pyrazol-4-yl)pyrimidin-4-yl)amino)phenyl)dimethylphosphine oxide]
< 5 nM	COc1cc2c(cc1Nc1ncc(Cl)c(Nc3ccccc3P(C)(C)=O)n1)CNCC2 [Example I-41, (2-((5-chloro-2-((6-methoxy-1,2,3,4-tetrahydroisoquinolin-7-yl)amino)pyrimidin-4-yl)amino)phenyl)dimethylphosphine oxide]
10 to 100 nM	CCOc1cc2c(cc1Nc1ncc(Cl)c(Nc3ccccc3P(C)(C)=O)n1)CN(C)CC2 [Example I-36, (2-((5-chloro-2-((6-ethoxy-2-methyl-1,2,3,4-tetrahydroisoquinolin-7-yl)amino)pyrimidin-4-yl)amino)phenyl)dimethylphosphine oxide]
10 to 100 nM	COc1cc2c(cc1Nc1ncc(Cl)c(Nc3ccccc3P(C)(C)=O)n1)C(C)(C)N(C)CC2 [Example I-28, (2-((5-chloro-2-((6-methoxy-1,1,2-trimethyl-1,2,3,4-tetrahydroisoquinolin-7-yl)amino)pyrimidin-4-yl)amino)phenyl)dimethylphosphine oxide]
100 to 10000 nM	COc1cc2c(cc1Nc1ncc(Cl)c(Nc3ccccc3P(C)(C)=O)n1)CN(C)CCC2 [Example I-35, (2-((5-chloro-2-((7-methoxy-2-methyl-2,3,4,5-tetrahydro-1H-benzo[c]azepin-8-yl)amino)pyrimidin-4-yl)amino)phenyl)dimethylphosphine oxide]
< 5 nM	[2H]C1([2H])NCCc2cc(OC)c(Nc3ncc(Cl)c(Nc4ccccc4P(C)(C)=O)n3)cc21 [Example I-39, (2-((5-chloro-2-((6-methoxy-1,2,3,4-tetrahydroisoquinolin-7-yl-1,1-d2)amino)pyrimidin-4-yl)amino)phenyl)dimethyl-phosphine oxide]
5 to 10 nM	COc1cc2c(cc1Nc1ncc(C(F)(F)F)c(Nc3ccccc3P(C)(C)=O)n1)CN(C)CC2 [Example I-27, (2-((2-((6-methoxy-2-methyl-1,2,3,4-tetrahydroisoquinolin-7-yl)amino)-5-(trifluoromethyl)pyrimidin-4-yl)amino)phenyl)dimethylphosphine oxide]
< 5 nM	CN1CCc2c(Br)cc(Nc3ncc(Cl)c(Nc4ccccc4P(C)(C)=O)n3)cc2C1 [Example I-24, (2-((2-((5-bromo-2-methyl-1,2,3,4-tetrahydroisoquinolin-7-yl)amino)-5-chloropyrimidin-4-yl)amino)phenyl)dimethylphosphine oxide]
5 to 10 nM	CCc1cnc(Nc2cc3c(cc2OC)CCN(C)C3)nc1Nc1ccccc1P(C)(C)=O [Example I-48, (2-((5-Ethyl-2-((6-methoxy-2-methyl-1,2,3,4-tetrahydroisoquinolin-7-yl)amino)pyrimidin-4-yl)amino)phenyl)dimethylphosphine oxide]
< 5 nM	CN1CCc2cc(Cl)c(Nc3ncc(Cl)c(Nc4ccccc4P(C)(C)=O)n3)cc2C1 [Example I-6, 5-chloro-N^2-(6-chloro-2-methyl-3,4-dihydro-1H-isoquinolin-7-yl)-N^4-(2-dimethylphosphorylphenyl)pyrimidine-2,4-diamine]
10 to 100 nM	COc1cc2c(cc1Nc1ncc(Cl)c(Nc3ccccc3P(C)(C)=O)n1)[C@H](N(C)C)CCC2 [Example I-13, (R)-(2-((5-chloro-2-((8-(dimethylamino)-3-methoxy-5,6,7,8-tetrahydronaphthalen-2-yl)amino)pyrimidin-4-yl)amino)phenyl)dimethylphosphine oxide]
10 to 100 nM	COc1cc2c(cc1Nc1ncc(Cl)c(Nc3ccccc3P(C)(C)=O)n1)CN(C)C2 [Example I-1, (2-((5-Chloro-2-((6-methoxy-2-methylisoindolin-5-yl)amino)pyrimidin-4-yl)amino)phenyl)dimethylphosphine oxide]
5 to 10 nM	COc1cc2c(cc1Nc1ncc(OC)c(Nc3ccccc3P(C)(C)=O)n1)CN(C)CC2 [Example I-23, (2-((5-methoxy-2-((6-methoxy-2-methyl-1,2,3,4-tetrahydroisoquinolin-7-yl)amino)pyrimidin-4-yl)amino)phenyl)dimethylphosphine oxide]
5 to 10 nM	CNC(=O)c1ccccc1Nc1nc(Nc2cc3c(cc2OC)CCN(C)C3)ncc1Cl [II-3, 2-((5-chloro-2-((6-methoxy-2-methyl-1,2,3,4-tetrahydroisoquinolin-7-yl)amino)pyrimidin-4-yl)amino)-N-methylbenzamide]
< 5 nM	COc1cc2c(cc1Nc1ncc(Cl)c(Nc3ccccc3S(=O)(=O)C(C)C)n1)CN(C)CC2 [II-1, 5-chloro-N^4-(2-(isopropylsulfonyl)phenyl)-N^2-(6-methoxy-2-methyl-1,2,3,4-tetrahydroisoquinolin-7-yl)pyrimidine-2,4-diamine]
100 to 10000 nM	COc1cc2c(cc1Nc1ncc(Cl)c(Nc3ccccc3P(C)(C)=O)n1)C(=O)N(C)CCC2 [Example I-34, 8-((5-chloro-4-((2-(dimethylphosphoryl)phenyl)amino)pyrimidin-2-yl)amino)-7-methoxy-2-methyl-2,3,4,5-tetrahydro-1H-benzo[c]azepin-1-one]
10 to 100 nM	COc1cc2c(cc1Nc1ncc(Cl)c(Nc3ccccc3P(C)(C)=O)n1)CCN(C)CC2 [Example I-3, (2-((5-chloro-2-((8-methoxy-3-methyl-2,3,4,5-tetrahydro-1H-benzo[d]azepin-7-yl)amino)pyrimidin-4-yl)amino)phenyl)dimethylphosphine oxide]
< 5 nM	COc1cc2c(cc1Nc1ncc(Cl)c(Nc3ccccc3P(C)(C)=O)n1)CCN(C)C2 [Example I-18, (2-((5-chloro-2-((7-methoxy-2-methyl-1,2,3,4-tetrahydroisoquinolin-6-yl)amino)pyrimidin-4-yl)amino)phenyl)dimethylphosphine oxide]
< 5 nM	COc1cc2c(cc1Nc1ncc(Cl)c(Nc3ccccc3P(C)(C)=O)n1)C(C)N(C)CC2 (stereo not shown) [Example I-29, (2-((5-chloro-2-((6-methoxy-1,2-dimethyl-1,2,3,4-tetrahydroisoquinolin-7-yl)amino)pyrimidin-4-yl)amino)phenyl)dimethylphosphine oxide]
100 to 10000 nM	COc1cc2c(cc1Nc1ncc(Cl)c(Nc3ccccc3P(C)(C)=O)n1)C(=O)NCC2 [Example I-33, 7-((5-chloro-4-((2-(dimethylphosphoryl)phenyl)amino)pyrimidin-2-yl)amino)-6-methoxy-3,4-dihydroisoquinolin-1(2H)-one]
10 to 100 nM	COc1cc2c(cc1Nc1ncc(Cl)c(Nc3ccccc3P(C)(C)=O)n1)CC(N(C)C)C2 (stereo not shown) [Example I-17, (2-((5-chloro-2-((2-(dimethylamino)-6-methoxy-2,3-dihydro-1H-inden-5-yl)amino)pyrimidin-4-yl)amino)phenyl)dimethylphosphine oxide]
100 to 10000 nM	COc1cc2c(cc1Nc1nccc(Nc3ccccc3P(C)(C)=O)n1)CN(C)CC2 [Example I-25, (2-((2-((6-methoxy-2-methyl-1,2,3,4-tetrahydroisoquinolin-7-yl)amino)pyrimidin-4-yl)amino)phenyl)dimethylphosphine oxide]
100 to 10000 nM	COc1cc2c(cc1Nc1ncc(Cl)c(Nc3ccccc3P(C)(C)=O)n1)[C@@H](N(C)C)CCC2 [Example I-15, (S)-(2-((5-chloro-2-((8-(dimethylamino)-3-methoxy-5,6,7,8-tetrahydronaphthalen-2-yl)amino)pyrimidin-4-yl)amino)phenyl)dimethylphosphine oxide]
< 5 nM	COc1cc2c(cc1Nc1ncc(Cl)c(Nc3ccccc3P(C)(C)=O)n1)CN1CCCCC1C2 (stereo not shown) [Example I-10, 5-chloro-N^4-(2-dimethylphosphorylphenyl)N^2-(9-methoxy-2,3,4,6,11,11a-hexahydro-1H-benzo[b]quinolizin-8-yl)pyrimidine-2,4-diamine]
